Assay results: the NIST ThermoML archive (doi:10.1016/j.tca.2016.09.014)
Numbers after ± are expanded uncertainties.

Key:
[1] = Molar enthalpy of transition or fusion; conditions: Crystal; DSC
[2] = Crystal; DTA

Row | Compound | Molar enthalpy of transition or fusion [1] [kcal/mol] | Normal melting temperature [2] [°C]
1 | O=C(O)c1cc(-c2ccc(F)cc2F)ccc1O [2',4'-difluoro-4-hydroxy-1,1'-biphenyl-3-carboxylic acid] | 9.22 ± 0.263 | 211.78 ± 5
2 | CCCCCCCCCCCCCCCCCC(=O)O [octadecanoic acid] | 12.1 ± 0.335 | –
3 | CCCCCCCCCCCCCCCCOC(=O)CCCCCCCCCCCCCCC [cetyl palmitate] | 15.8 ± 0.43 | 41.27 ± 5
